In PubChem BioAssay AID2060342 (Molecular Pharmacology Branch, DTP, NCI, 2025):
“And” between values parts separate entries of the source, which are not always exact repeats. Equal entries are not always repeated.

Tested on: 171881-019-R-J1-PDC multicell spheroid viability
Test: Anticancer human tumor 171881-019-R-J1-PDC patient-derived invasive breast carcinoma cell line growth inhibition [IpAb]
Settings: for viability, T/C: stronger effect = lower value
Text: Combinatorial screen of targeted agents with ipatasertib and abemaciclib in multi-cell type tumor spheroids
A high-throughput screen of multi-cell type tumor spheroids was designed to identify active combinations of targeted small molecules and ipatasertib or abemaciclib. Complex spheroids include a stromal component modeled by human endothelial cells (HUVEC) and fibroblasts modeled by human mesenchymal stem cells (MSCs). The concentration ranges selected for each drug and investigational agent were based upon clinically achievable concentrations if the clinical Cmax of the agent was known.
Compounds. The drugs and investigational agents: ipatasertib (NSC767898), abemaciclib(NSC768073), selumetinib (NSC741078), trametinib (758246), adavosertib (NSC754352), everolimus (NSC733504), sapanisertib (NSC764658), vemurafenib (NSC761431), venetoclax (NSC766270), copanlisib (NSC809693), apelisib (NSC765974), palbociblib (NSC758247), vemurafenib (NSC761431), dabrafenib (NSC764134), ravoxertinib (NSC781343), BMS-387032 (NSC767048), sotorasib (NSC818433), talazoparib (NSC767125) and afursertib (NSC778305), were obtained from the National Cancer Institute (NCI) Developmental Therapeutics Program Chemical Repository. The FDA-approved anticancer drug set is available from the NCI Developmental Therapeutics Program. […] The stock solutions were prepared in dimethyl sulfoxide (DMSO, Sigma-Aldrich, St. Louis, MO, cat. D2650) at 800-fold the tested concentration and stored at -70 degrees C prior to their use. All drugs and investigational agents were tested over a range starting from a high concentration at or near the clinical Cmax and decreasing in half-log increments. If the clinical Cmax for an agent had not been determined, the highest concentration tested was 10 microM.
NCI60 Cell Culture. NCI60 cell lines were obtained from the NCI Developmental Therapeutics Program Tumor Repository. For each lot of cells, the Repository performed Applied Biosystems AmpFLSTR Identifiler testing with PCR amplification to confirm consistency with the published Identifier STR profile for each cell line. Cells were kept in continuous culture for no more than 20 passages. The optimal seeding densities for each of the cell lines at each time point assessed were determined prior to performing the concentration response studies. Briefly, the NCI60 human tumor lines were grown as monolayers in RPMI 1640 medium supplemented with 10% FBS and 2 mmol/L L-glutamine.
An additional 9 lines were from the NCI60 cell line panel including MDA-MB-231 breast carcinoma, MDA-MB-468 breast carcinoma, MCF7 breast carcinoma, Hs578T breast carcinoma, MALME-3M melanoma, SK-MEL-2 melanoma, SK-OV-3 ovarian carcinoma, DU-145 prostate carcinoma, PC-3 prostate carcinoma, all cell lines along with major genetic alterations are listed on Table 2. Pooled donor human umbilical vein endothelial cells (HUVEC, Lonza, cat. CC-2519) and human mesenchymal stem cells (hMSC, Lonza, cat. PT-2501) were purchased from Lonza (Walkersville, MD).
PDMR cell lines were grown in complete medium (DC medium): Dulbecco's modified Eagle's medium (DMEM)/F12 supplemented with 5% fetal bovine serum (FBS), 2 mM L-glutamine, 100 U/mL penicillin and 100 µg/ml streptomycin, 0.4 µg/ml hydrocortisone, 10 ng/ml epidermal growth factor (EGF) recombinant human protein, 24 µg/mL adenine, and 0.1 mg/mL primocin. During culture from frozen stock vials, PDMR cells were cultured in the same medium containing 10 µM Y-27632 (see Table 3). The PDCs were cultured in complete DMEM/F12 media without 10 microM Y-27632 dihydrochloride for at least two passages prior to the screen. The pooled donor HUVEC and hMSC were cultured in endothelial cell growth medium 2 (PromoCell, Heidelberg, Germany, cat. C-22011) and mesenchymal stem cell growth medium 2 (PromoCell, cat. C-28009), respectively. For all experiments, HUVEC and hMSC were used at passages </=5.
[…]

[1] = compound alone, run of 05/18/2021
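Also: spheroids exposed to the agents for seven days before readout.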

SMILES	IC50 (curve of compound)	viability, T/C (compound 0.0316 µM)	viability, T/C (compound 0.1 µM)	viability, T/C (compound 0.316 µM)	viability, T/C (compound 1 µM)	viability, T/C (compound 3.16 µM)	viability, T/C (compound 10 µM)	viability, T/C (compound 0.01 µM)	other results
CC(=O)c1c(C)c2cnc(Nc3ccc(N4CCNCC4)cn3)nc2n(C2CCCC2)c1=O	> 300 nM	–	–	–	–	–	–	–	viability, T/C (compound 0.000949 µM): 103% and 97.8%; viability, T/C (compound 0.003 µM): 92.6% and 92.2%; viability, T/C (compound 0.00949 µM): 102% and 103%; viability, T/C (compound 0.03 µM): 99.4% and 94%; viability, T/C (compound 0.0949 µM): 105% and 96.1%; viability, T/C (compound 0.3 µM): 115% and 105%
CC(C)(C)c1cnc(CSc2cnc(NC(=O)C3CCNCC3)s2)o1	202 nM and 176 nM	–	–	–	–	–	–	–	viability, T/C (compound 0.00949 µM): 96% and 96.9%; viability, T/C (compound 0.03 µM): 109% and 96.1%; viability, T/C (compound 0.0949 µM): 116% and 119%; viability, T/C (compound 0.3 µM): 20.1% and 3.63%; viability, T/C (compound 0.949 µM): 0.52% and 0.41%; viability, T/C (compound 3 µM): 0.65% and 0.81%
CC(C)NCC(C(=O)N1CCN(c2ncnc3c2C(C)CC3O)CC1)c1ccc(Cl)cc1 (stereo not given)	–	–	–	–	27.9% [middle of 13 runs]	11.2% [middle of 13 runs]	6.7% [middle of 12 runs]	–	IC50 [1]: 618 nM [middle of 13 runs]
CC(C)n1nc(-c2ccc3oc(N)nc3c2)c2c(N)ncnc21	6.27 nM and 4.58 nM	4.54% and 3.87%	2.72% and 2.73%	–	–	–	–	28.1% and 18.6%	viability, T/C (compound 0.000316 µM): 109% and 103%; viability, T/C (compound 0.001 µM): 114% and 106%; viability, T/C (compound 0.00316 µM): 82.1% and 64%
CC1(C)CCC(CN2CCN(c3ccc(C(=O)NS(=O)(=O)c4ccc(NCC5CCOCC5)c([N+](=O)[O-])c4)c(Oc4cnc5[nH]ccc5c4)c3)CC2)=C(c2ccc(Cl)cc2)C1	6280 nM and 5550 nM	107% and 93.6%	102% and 84.1%	93.8% and 78.3%	92.5% and 66.3%	89.8% and 87.8%	23.9% and 16.5%	–	–
CCCS(=O)(=O)Nc1ccc(F)c(C(=O)c2c[nH]c3ncc(-c4ccc(Cl)cc4)cc23)c1F	> 10000 nM	111% and 90.2%	95.2% and 83%	86.9% and 93.1%	90.1% and 80.4%	78.3% and 72.6%	76.2% and 87.7%	–	–
CCN1CCN(Cc2ccc(Nc3ncc(F)c(-c4cc(F)c5nc(C)n(C(C)C)c5c4)n3)nc2)CC1	–	105% [middle of 13 runs]	116% [middle of 13 runs]	–	149% [middle of 13 runs]	–	–	91.6% [middle of 13 runs]	IC50 [1]: > 1000 nM
COc1c(OCCCN2CCOCC2)ccc2c3n(c(=NC(=O)c4cnc(N)nc4)nc12)CCN3	14.6 nM and 20.2 nM	17.4% and 33.4%	4.32% and 7.03%	1% and 1.49%	1.51% and 1.79%	–	–	65.8% and 77.7%	viability, T/C (compound 0.00316 µM): 109% and 115%

More lines, main results first:

IC50 (curve of compound)	SMILES	viability, T/C (compound 0.0316 µM)	viability, T/C (compound 0.1 µM)	viability, T/C (compound 0.316 µM)	viability, T/C (compound 1 µM)	viability, T/C (compound 3.16 µM)	viability, T/C (compound 10 µM)	viability, T/C (compound 0.01 µM)	other results
7470 nM and 6740 nM	C=CC(=O)N1CCN(c2nc(=O)n(-c3c(C)ccnc3C(C)C)c3nc(-c4c(O)cccc4F)c(F)cc23)C(C)C1 (stereo not given)	98.7% and 101%	92.3% and 95.8%	99% and 106%	94.1% and 95.3%	93.6% and 84.7%	35.2% and 31.8%	–	–
768 nM and 786 nM	C=CCn1c(=O)c2cnc(Nc3ccc(N4CCN(C)CC4)cc3)nc2n1-c1cccc(C(C)(C)O)n1	89.9% and 111%	106% and 111%	104% and 133%	35.1% and 43.7%	28.2% and 27.2%	27.9% and 24.9%	–	–
